Target: T1, Arachidonate 15-lipoxygenase (Pseudomonas aeruginosa, UniProt Q9I4G8)
T1 sequence (Q9I4G8 whole entry): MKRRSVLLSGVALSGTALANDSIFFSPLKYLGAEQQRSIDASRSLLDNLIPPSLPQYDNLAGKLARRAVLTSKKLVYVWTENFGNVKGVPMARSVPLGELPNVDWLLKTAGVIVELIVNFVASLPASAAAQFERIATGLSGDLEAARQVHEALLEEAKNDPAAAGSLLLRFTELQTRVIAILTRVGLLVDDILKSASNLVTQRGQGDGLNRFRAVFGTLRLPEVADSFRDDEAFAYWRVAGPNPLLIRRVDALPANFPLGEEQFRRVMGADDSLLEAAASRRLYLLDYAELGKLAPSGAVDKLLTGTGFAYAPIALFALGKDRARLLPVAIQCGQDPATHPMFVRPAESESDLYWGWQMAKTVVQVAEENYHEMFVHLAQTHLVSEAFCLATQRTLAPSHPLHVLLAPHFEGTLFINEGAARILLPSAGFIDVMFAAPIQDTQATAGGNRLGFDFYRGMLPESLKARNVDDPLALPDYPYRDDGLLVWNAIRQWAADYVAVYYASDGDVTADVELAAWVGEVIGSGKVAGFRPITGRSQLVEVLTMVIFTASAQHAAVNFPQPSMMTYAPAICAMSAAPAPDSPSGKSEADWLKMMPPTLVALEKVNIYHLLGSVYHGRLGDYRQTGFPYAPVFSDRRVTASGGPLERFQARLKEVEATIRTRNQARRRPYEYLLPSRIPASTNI
Test: LoxA Selectivity Assay
Conditions: pH 7; 25 °C
Procedure: The one-point inhibition percentages were determined for human LOX inhibitors by following the formation of the conjugated diene product at 234 nm (ε = 25,000 M−1 cm−1) at an inhibitor concentration of 25 μM. All reaction mixtures were 2 mL in volume and constantly stirred using a magnetic stir bar at room temperature (22 °C) with 7 nM LoxA. Reactions were conducted in 25 mM HEPES buffer (pH 7.0), 0.01% Triton X-100, and 10 μM AA. The concentration of AA was quantitatively determined by allowing the enzymatic reaction to go to completion. Confirmed hitswere then screened against the human isozymes 5-LOX, 15-LOX-1, 15-LOX-2, and 12-LOX for specificity.

| Compound | IC50 [nM] |
| --- | --- |
| O=C(OCC#CCSc1nnc(-c2cccc3ccccc23)o1)c1ccccc1 [4-(5-(Naphthalen-1-yl)-1,3,4-oxadiazol-2-ylthio)but-2-ynyl benzoate] | 10 |
| CC(Cc1ccc(O)c(O)c1)C(C)Cc1ccc(O)c(O)c1 (stereo not given) [LOX inhibitor, N/A] | 500 |
| CCCCCCc1ccc(Oc2ccccc2Cl)c(O)c1 [PT91] | 2600 |
| CCCCCCc1ccc(Oc2ccccc2F)c(O)c1 [PT113] | 1000 |
| CCCCCCc1ccn(Cc2ccccc2C)c(=O)c1 [PT171] | 520 |

Source: BindingDB's records for doi:10.1021/acs.biochem.6b00338 (University of California Santa Cruz, 2016)
